From paper PMC5597475 (Molecular imaging and biology : MIB : the official …, 2017)

Assays:
[1] = biological target: LRRK2 (Homo sapiens, UniProt Q5S007); format: binding
[2] = biological target: LRRK2 (Rattus norvegicus, UniProt F1LNJ1); conditions: IC50 for displacement of [^3H]LRRK2-IN-1 binding, rat kidney; 10 nM radioligand
[3] = system: WT (wild-type) LRRK2; conditions: cited from earlier work
[4] = system: mutant G2019S type LRRK2; conditions: cited from earlier work
[5] = biological target: LRRK2 (Mus musculus, UniProt Q5S006); test: In vivo blocking study: [^3H]LRRK2-IN-1 co-administered with Pf-06447475 in mice; conditions: for % blocking (max.) of [^3H]LRRK2-IN-1 uptake: 10 mg/kg Pf-06447475, 10 mg/kg
[6] = biological target: LRRK2 kinase; conditions: LRRK2 kinase inhibitor; cited from earlier work

Sequence of LRRK2 (Mus musculus, UniProt Q5S006) (Q5S006 whole entry): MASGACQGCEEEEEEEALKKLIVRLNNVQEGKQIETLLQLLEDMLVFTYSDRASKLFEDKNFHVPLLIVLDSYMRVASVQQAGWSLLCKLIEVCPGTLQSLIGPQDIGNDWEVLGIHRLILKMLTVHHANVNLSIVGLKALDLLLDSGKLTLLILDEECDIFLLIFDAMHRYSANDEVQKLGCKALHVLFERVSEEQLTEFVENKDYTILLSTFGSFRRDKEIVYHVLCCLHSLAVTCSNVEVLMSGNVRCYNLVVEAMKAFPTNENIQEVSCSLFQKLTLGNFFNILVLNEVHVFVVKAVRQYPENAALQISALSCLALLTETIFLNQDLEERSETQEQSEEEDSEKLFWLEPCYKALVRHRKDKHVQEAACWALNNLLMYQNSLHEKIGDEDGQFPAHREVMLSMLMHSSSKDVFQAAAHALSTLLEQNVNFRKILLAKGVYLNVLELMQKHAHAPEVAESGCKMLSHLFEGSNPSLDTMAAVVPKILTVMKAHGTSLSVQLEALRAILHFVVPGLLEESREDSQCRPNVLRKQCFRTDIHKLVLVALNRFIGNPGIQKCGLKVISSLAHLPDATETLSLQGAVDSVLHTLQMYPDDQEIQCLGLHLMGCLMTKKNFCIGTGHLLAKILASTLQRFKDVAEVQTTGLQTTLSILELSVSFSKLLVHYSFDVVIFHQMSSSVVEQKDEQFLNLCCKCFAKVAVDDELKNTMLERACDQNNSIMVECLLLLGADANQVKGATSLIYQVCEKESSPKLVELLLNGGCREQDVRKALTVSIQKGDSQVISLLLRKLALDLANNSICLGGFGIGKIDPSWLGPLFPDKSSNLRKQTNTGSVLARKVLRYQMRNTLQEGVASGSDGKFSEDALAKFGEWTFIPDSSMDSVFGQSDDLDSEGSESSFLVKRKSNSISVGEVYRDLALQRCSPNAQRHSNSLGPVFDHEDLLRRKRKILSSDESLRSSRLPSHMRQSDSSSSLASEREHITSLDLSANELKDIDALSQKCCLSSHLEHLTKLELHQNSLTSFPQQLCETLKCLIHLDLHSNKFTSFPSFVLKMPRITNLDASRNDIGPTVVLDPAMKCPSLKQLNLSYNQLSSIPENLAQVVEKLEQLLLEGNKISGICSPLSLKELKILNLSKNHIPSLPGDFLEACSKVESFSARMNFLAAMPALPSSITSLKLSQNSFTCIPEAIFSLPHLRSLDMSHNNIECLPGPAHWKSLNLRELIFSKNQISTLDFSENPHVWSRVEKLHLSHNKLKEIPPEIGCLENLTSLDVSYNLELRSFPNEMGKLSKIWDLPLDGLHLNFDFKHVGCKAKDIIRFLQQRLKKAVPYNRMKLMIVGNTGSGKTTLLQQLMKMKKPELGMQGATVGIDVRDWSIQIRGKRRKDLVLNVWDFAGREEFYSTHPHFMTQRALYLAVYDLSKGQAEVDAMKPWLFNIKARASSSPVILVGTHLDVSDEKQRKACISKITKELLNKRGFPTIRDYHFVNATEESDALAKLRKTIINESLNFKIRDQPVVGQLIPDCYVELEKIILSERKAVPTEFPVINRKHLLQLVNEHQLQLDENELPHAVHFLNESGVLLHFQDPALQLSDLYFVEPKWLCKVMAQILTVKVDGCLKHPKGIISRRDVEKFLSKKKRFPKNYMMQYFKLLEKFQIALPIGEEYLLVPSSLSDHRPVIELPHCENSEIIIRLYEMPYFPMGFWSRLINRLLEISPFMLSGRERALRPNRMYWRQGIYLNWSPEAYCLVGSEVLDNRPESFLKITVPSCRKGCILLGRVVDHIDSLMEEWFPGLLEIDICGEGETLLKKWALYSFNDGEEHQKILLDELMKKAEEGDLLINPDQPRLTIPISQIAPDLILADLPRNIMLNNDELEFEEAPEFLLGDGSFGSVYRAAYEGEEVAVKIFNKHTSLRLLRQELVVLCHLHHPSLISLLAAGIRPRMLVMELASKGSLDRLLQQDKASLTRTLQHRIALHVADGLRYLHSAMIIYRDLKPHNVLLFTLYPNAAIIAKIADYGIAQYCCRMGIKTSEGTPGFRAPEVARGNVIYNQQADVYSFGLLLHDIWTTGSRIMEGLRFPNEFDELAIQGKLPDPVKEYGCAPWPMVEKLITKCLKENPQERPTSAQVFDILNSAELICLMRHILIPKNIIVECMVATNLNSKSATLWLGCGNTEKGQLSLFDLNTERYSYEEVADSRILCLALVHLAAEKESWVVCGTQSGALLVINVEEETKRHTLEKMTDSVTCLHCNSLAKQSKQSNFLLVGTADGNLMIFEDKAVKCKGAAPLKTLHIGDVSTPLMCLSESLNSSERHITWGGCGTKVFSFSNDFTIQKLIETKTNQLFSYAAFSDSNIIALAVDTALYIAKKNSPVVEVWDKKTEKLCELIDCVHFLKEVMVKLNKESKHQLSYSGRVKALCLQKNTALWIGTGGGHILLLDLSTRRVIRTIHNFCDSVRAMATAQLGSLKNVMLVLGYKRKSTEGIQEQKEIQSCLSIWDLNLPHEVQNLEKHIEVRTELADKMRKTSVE
Sequence of LRRK2 (Rattus norvegicus, UniProt F1LNJ1) (F1LNJ1 1-2526): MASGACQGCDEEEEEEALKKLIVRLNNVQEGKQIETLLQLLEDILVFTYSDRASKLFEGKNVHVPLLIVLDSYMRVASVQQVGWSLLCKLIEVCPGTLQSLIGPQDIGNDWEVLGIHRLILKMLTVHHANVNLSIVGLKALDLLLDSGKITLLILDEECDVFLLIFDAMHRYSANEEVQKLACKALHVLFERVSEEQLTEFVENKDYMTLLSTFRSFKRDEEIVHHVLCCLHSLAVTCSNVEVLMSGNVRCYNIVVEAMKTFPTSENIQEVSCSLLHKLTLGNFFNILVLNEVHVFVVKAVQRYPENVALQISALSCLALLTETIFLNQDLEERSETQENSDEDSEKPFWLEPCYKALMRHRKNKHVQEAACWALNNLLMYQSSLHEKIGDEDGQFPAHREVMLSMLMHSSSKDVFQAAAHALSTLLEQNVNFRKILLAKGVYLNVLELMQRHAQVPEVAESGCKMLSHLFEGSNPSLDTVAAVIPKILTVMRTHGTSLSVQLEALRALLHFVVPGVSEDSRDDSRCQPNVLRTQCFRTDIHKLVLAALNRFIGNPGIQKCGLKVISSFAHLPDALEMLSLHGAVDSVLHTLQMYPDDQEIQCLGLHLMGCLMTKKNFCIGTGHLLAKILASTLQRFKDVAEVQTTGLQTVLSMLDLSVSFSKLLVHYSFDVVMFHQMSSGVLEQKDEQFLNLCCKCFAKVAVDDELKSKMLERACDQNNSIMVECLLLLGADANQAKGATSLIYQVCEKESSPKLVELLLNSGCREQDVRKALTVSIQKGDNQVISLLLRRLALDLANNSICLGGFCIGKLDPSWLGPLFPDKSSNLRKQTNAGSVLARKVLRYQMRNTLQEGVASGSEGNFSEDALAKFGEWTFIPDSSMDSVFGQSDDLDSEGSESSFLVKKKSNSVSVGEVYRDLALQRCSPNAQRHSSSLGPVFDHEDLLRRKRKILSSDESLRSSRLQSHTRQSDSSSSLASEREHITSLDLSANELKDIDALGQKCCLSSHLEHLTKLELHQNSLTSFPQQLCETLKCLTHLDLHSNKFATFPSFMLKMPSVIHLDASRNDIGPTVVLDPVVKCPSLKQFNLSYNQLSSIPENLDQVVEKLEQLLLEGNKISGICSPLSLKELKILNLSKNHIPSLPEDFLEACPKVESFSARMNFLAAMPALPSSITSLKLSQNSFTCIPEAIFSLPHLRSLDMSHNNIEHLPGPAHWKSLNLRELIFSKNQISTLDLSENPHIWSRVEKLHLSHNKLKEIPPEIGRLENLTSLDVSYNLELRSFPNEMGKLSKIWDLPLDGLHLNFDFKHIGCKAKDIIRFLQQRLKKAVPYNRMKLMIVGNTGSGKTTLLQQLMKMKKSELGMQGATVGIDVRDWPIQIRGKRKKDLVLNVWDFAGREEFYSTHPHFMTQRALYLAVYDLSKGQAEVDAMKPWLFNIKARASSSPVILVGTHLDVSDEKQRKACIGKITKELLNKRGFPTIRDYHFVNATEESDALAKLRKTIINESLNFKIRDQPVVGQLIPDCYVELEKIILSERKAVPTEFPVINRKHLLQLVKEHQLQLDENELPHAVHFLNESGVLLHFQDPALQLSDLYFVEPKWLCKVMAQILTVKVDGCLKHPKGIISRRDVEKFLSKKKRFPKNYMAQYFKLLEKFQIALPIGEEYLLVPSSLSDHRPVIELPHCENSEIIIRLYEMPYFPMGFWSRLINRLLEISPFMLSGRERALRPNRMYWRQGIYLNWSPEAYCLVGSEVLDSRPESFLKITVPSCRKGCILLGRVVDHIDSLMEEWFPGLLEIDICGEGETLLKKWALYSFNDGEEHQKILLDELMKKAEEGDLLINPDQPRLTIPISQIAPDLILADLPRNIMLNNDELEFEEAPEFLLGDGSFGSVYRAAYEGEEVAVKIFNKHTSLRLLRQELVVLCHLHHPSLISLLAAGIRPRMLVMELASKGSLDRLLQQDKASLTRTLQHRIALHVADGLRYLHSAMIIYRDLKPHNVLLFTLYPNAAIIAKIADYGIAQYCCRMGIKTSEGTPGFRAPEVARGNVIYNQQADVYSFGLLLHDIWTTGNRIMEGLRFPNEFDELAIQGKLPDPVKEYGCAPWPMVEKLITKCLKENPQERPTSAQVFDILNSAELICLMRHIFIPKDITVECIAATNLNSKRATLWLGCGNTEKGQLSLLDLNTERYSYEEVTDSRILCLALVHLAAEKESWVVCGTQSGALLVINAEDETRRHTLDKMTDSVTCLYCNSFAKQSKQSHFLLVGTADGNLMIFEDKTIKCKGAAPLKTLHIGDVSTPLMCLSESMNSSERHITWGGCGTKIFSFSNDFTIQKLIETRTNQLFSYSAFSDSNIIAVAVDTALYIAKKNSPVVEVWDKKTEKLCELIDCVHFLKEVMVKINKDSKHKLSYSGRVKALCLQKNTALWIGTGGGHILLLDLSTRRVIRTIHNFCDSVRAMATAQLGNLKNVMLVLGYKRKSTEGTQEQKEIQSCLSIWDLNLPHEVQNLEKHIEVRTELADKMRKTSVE

Row | % blocking (max.) of [^3H]LRRK2-IN-1 uptake ([5]; brain) | Reduction of [^3H]LRRK2-IN-1 uptake ([5]; heart, 10 mg/kg Pf-06447475) | Reduction of [^3H]LRRK2-IN-1 uptake (%ID/g) ([5]; in the kidney or brain, 10 mg/kg Pf-06447475) | % blocking (max.) of [^3H]LRRK2-IN-1 uptake ([5]; kidney) | Reduction of [^3H]LRRK2-IN-1 uptake ([5]; liver, 10 mg/kg Pf-06447475) | Reduction of [^3H]LRRK2-IN-1 uptake ([5]; lung, 10 mg/kg Pf-06447475) | Reduction of [^3H]LRRK2-IN-1 uptake ([5]; muscle, 10 mg/kg Pf-06447475) | Reduction of [^3H]LRRK2-IN-1 uptake ([5]; spleen, 10 mg/kg Pf-06447475) | SMILES | IC50 [1] | IC50 [2] | IC50 [3] | IC50 [4] | IC50 [6]
1 | – | – | – | – | – | – | – | – | COc1cc(C(=O)N2CCC(N3CCN(C)CC3)CC2)ccc1Nc1ncc2c(n1)N(C)c1ccccc1C(=O)N2C [LRRK2-IN-1] | 73 ± 6 nM | 40 ± 4 nM | 13 nM | 6 nM | –
2 | 62% | 72% | 50–60% | 54% | 34% | 78% | 62% | 40% | N#Cc1cccc(-c2c[nH]c3ncnc(N4CCOCC4)c23)c1 [Pf-06447475, 3-[4-(morpholin-4-yl)-7H-pyrrolo[2,3-d]pyrimidin-5-yl] benzonitrile] | – | – | – | – | 3 nM
